In this assay the target is T1, Human ATX protein (Homo sapiens, UniProt Q13822).
T1 construct: made in house
Put plainly: ATX biochemical FRET assay with FS-3 substrate. Particulars: ATX 1.0 μg/mL, 30 minutes pre-incubation, 2 hours at room temperature. In outline: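 Enzyme at 1.0 μg/mL final, pre-incubated with compound (10-point, 3-fold series) for 30 min at RT in Tris pH 7.4 buffer with NaCl, KCl, CaCl2, MgCl2 and 1 mg/mL fatty-acid-free BSA. After FS-3 addition, 2 h at RT protected from light; fluorescence at 485/538 nm.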

Where [1] appears, read: FRET substrate FS-3 2 μM, read-out: IC50.

This is an account of results in US10017506B2, “ATX modulating agents” (BIOGEN MA INC., priority 2012, dated 2018).

Read-outs that look alike come from different tables or passages of the source.

In general, IC50 refers to the concentration that inhibits the measured activity by half. On to `CC[C@H]1CC[C@@H](Oc2ccc3ccc(C(C)N4C5CCC4CC(C(=O)O)C5)cc3c2C#N)CC1` (stereo partly drawn) [Example 73, 8-(1-(8-cyano-7-((cis-4-ethylcyclohexyl)oxy)naphthalen-2-yl)ethyl)-8-azabicyclo[3.2.1]octane-3-carboxylic acid], for which the IC50 (IC50, FRET substrate FS-3 2 μM) was no more than 100 nM.

The compound `CC[C@H]1CC[C@@H](Oc2ccc3ccc(C(C)N4C5CCCC4CC(C(=O)O)C5)cc3c2C#N)CC1` (stereo partly drawn) [Example 74, 9-(1-(8-cyano-7-((cis-4-ethylcyclohexyl)oxy)naphthalen-2-yl)ethyl)-9-azabicyclo[3.3.1]nonane-3-carboxylic acid] displayed an IC50 (IC50, FRET substrate FS-3 2 μM) of no more than 100 nM. In the case of `CC1(C)C(NCc2ccc3ccc(O[C@H]4CC[C@@H](C)CC4)c(C(F)(F)F)c3c2)CC1C(=O)O` (stereo partly drawn) [Example 78, 2,2-dimethyl-3-(((7-((cis-4-methylcyclohexyl)oxy)-8-(trifluoromethyl)naphthalen-2-yl)methyl)amino)cyclobutanecarboxylic acid], under setting [1], the IC50 is no more than 250 nM.

For the compound `CC(c1ccc2ccc(O[C@H]3CC[C@@H](C)CC3)c(C(F)(F)F)c2c1)N1CCC(C(=O)O)CC1` (stereo partly drawn) [Example 80, 1-(1-(7-((cis-4-methylcyclohexyl)oxy)-8-(trifluoromethyl)naphthalen-2-yl)ethyl)piperidine-4-carboxylic acid], the IC50 under setting [1] was no more than 250 nM. Same read-out and setting: next, `CC(c1ccc2ccc(O[C@H]3CC[C@@H](C)CC3)c(C(F)(F)F)c2c1)N1CCC[C@H](CC(=O)O)C1` (stereo partly drawn) [Example 81, 2-((3R)-1-(1-(7-((cis-4-methylcyclohexyl)oxy)-8-(trifluoromethyl)naphthalen-2-yl)ethyl)piperidin-3-yl)acetic acid]: no more than 250 nM.

As to `CC(NC1CC(C(=O)O)C1(C)C)c1ccc2ccc(O[C@H]3CC[C@@H](C)CC3)c(C(F)(F)F)c2c1` (stereo partly drawn) [Example 82, 2,2-dimethyl-3-((1-(7-((cis-4-methylcyclohexyl)oxy)-8-(trifluoromethyl)naphthalen-2-yl)ethyl)amino)cyclobutanecarboxylic acid], under setting [1], the IC50 was no more than 100 nM. In the case of `C[C@H]1CC[C@@H](Oc2ccc3ccc(CN4C5CCC4CC(C(=O)O)C5)cc3c2Cl)CC1` (stereo partly drawn) [Example 83, 8-((8-chloro-7-((cis-4-methylcyclohexyl)oxy)naphthalen-2-yl)methyl)-8-azabicyclo[3.2.1]octane-3-carboxylic acid], the IC50 (IC50, FRET substrate FS-3 2 μM) was no more than 250 nM. Same read-out and setting: next, `C[C@H]1CC[C@@H](Oc2ccc3ccc(CN4C5CCCC4CC(C(=O)O)C5)cc3c2C(F)F)CC1` (stereo partly drawn) [Example 86, 9-((8-(difluoromethyl)-7-((cis-4-methylcyclohexyl)oxy)naphthalen-2-yl)methyl)-9-azabicyclo[3.3.1]nonane-3-carboxylic acid]: no more than 100 nM.

Turning to `CC(c1ccc2ccc(O[C@H]3CC[C@@H](C)CC3)c(C(F)F)c2c1)N1C2CCC1CC(C(=O)O)C2` (stereo partly drawn) [Example 87, 8-(1-(8-(difluoromethyl)-7-((cis-4-methylcyclohexyl)oxy)naphthalen-2-yl)ethyl)-8-azabicyclo[3.2.1]octane-3-carboxylic acid], where the note is “IC50, FRET substrate FS-3 2 μM”, the concentration for half-maximal inhibition (IC50) is no more than 100 nM. Still for that read-out and setting: for `CC(c1ccc2ccc(O[C@H]3CC[C@@H](C)CC3)c(C(F)F)c2c1)N1C2CCCC1CC(C(=O)O)C2` (stereo partly drawn) [Example 88, 9-(1-(8-(difluoromethyl)-7-((cis-4-methylcyclohexyl)oxy)naphthalen-2-yl)ethyl)-9-azabicyclo[3.3.1]nonane-3-carboxylic acid] the value was no more than 100 nM. On the same count and under the same terms, next, `CC(c1ccc2ccc(O[C@H]3CC[C@@H](C)CC3)c(Cl)c2c1)N1C2CCC1CC(C(=O)O)C2` (stereo partly drawn) [Example 90, 8-(1-(8-chloro-7-((cis-4-methylcyclohexyl)oxy)naphthalen-2-yl)ethyl)-8-azabicyclo[3.2.1]octane-3-carboxylic acid]: no more than 250 nM; `CC(c1ccc2ccc(O[C@H]3CC[C@@H](C)CC3)c(Cl)c2c1)N1C2CCCC1CC(C(=O)O)C2` (stereo partly drawn) [Example 91, 9-(1-(8-chloro-7-((cis-4-methylcyclohexyl)oxy)naphthalen-2-yl)ethyl)-9-azabicyclo[3.3.1]nonane-3-carboxylic acid]: no more than 250 nM; `CCC(c1ccc2ccc(O[C@H]3CC[C@@H](C)CC3)c(Cl)c2c1)N1C2CCC1CC(C(=O)O)C2` (stereo partly drawn) [Example 95, 8-(1-(8-chloro-7-((cis-4-methylcyclohexyl)oxy)naphthalen-2-yl)propyl)-8-azabicyclo[3.2.1]octane-3-carboxylic acid]: no more than 500 nM. Same read-out and setting: next, `C[C@H]1CC[C@@H](Oc2ccc3ccc(CN4C5CCC4CC(C(=O)O)C5)cc3c2C#N)CC1` (stereo partly drawn) [Example 96, 8-((8-cyano-7-((cis-4-methylcyclohexyl)oxy)naphthalen-2-yl)methyl)-8-azabicyclo[3.2.1]octane-3-carboxylic acid]: no more than 250 nM.

The compound `C[C@H]1CC[C@@H](Oc2ccc3ccc(CN4C5CCCC4CC(C(=O)O)C5)cc3c2C#N)CC1` (stereo partly drawn) [Example 98, 9-((8-cyano-7-((cis-4-methylcyclohexyl)oxy)naphthalen-2-yl)methyl)-9-azabicyclo[3.3.1]nonane-3-carboxylic acid] had an IC50 (IC50, FRET substrate FS-3 2 μM) of no more than 100 nM. For the setting “IC50, FRET substrate FS-3 2 μM”, `CC(c1ccc2ccc(O[C@H]3CC[C@@H](C)CC3)c(C#N)c2c1)N1C2CCC1CC(C(=O)O)C2` (stereo partly drawn) [Example 101, 8-(1-(8-cyano-7-((cis-4-methylcyclohexyl)oxy)naphthalen-2-yl)ethyl)-8-azabicyclo[3.2.1]octane-3-carboxylic acid] displayed an IC50 of no more than 100 nM. Still for that read-out and setting: for `CC(c1ccc2ccc(O[C@H]3CC[C@@H](C)CC3)c(C#N)c2c1)N1C2CCCC1CC(C(=O)O)C2` (stereo partly drawn) [Example 102, 9-(1-(8-cyano-7-((cis-4-methylcyclohexyl)oxy)naphthalen-2-yl)ethyl)-9-azabicyclo[3.3.1]nonane-3-carboxylic acid] the value was no more than 100 nM; for `CCC(c1ccc2ccc(O[C@H]3CC[C@@H](C)CC3)c(C(F)(F)F)c2c1)N1C2CCCC1CC(C(=O)O)C2` (stereo partly drawn) [Example 104, 9-(1-(7-((cis-4-methylcyclohexyl)oxy)-8-(trifluoromethyl)naphthalen-2-yl)propyl)-9-azabicyclo[3.3.1]nonane-3-carboxylic acid], no more than 250 nM. On to `CCC(NC1CC(C(=O)O)C1(C)C)c1ccc2ccc(O[C@H]3CC[C@@H](C)CC3)c(C(F)(F)F)c2c1` (stereo partly drawn) [Example 105, 2,2-dimethyl-3-((1-(7-((cis-4-methylcyclohexyl)oxy)-8-(trifluoromethyl)naphthalen-2-yl)propyl)amino)cyclobutanecarboxylic acid], for which the concentration for half-maximal inhibition (IC50) under setting [1] is no more than 100 nM. The same measure, in the same setting: next, `CC(C)[C@H]1CC[C@@H](Oc2ccc3ccc(CN4CCC(C(=O)O)CC4)cc3c2C(F)(F)F)CC1` [Example 106, 1-((7-((cis-4-isopropylcyclohexyl)oxy)-8-(trifluoromethyl)naphthalen-2-yl)methyl)piperidine-4-carboxylic acid]: no more than 500 nM. As to `CC(C)[C@H]1CC[C@@H](Oc2ccc3ccc(CN4C5CCC4CC(C(=O)O)C5)cc3c2C(F)(F)F)CC1` (stereo partly drawn) [Example 107, 8-((7-((cis-4-isopropylcyclohexyl)oxy)-8-(trifluoromethyl)naphthalen-2-yl)methyl)-8-azabicyclo[3.2.1]octane-3-carboxylic acid], where the note is “IC50, FRET substrate FS-3 2 μM”, the IC50 was no more than 100 nM.

Under “IC50, FRET substrate FS-3 2 μM”, `CC(C)[C@H]1CC[C@@H](Oc2ccc3ccc(CN4C5CCCC4CC(C(=O)O)C5)cc3c2C(F)(F)F)CC1` (stereo partly drawn) [Example 108, 9-((7-((cis-4-isopropylcyclohexyl)oxy)-8-(trifluoromethyl)naphthalen-2-yl)methyl)-9-azabicyclo[3.3.1]nonane-3-carboxylic acid] had an IC50 of no more than 100 nM.
